# Reference: PubChem BioAssay (NCI)
#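 Following 48 hours of exposure in 96-well plates, responses at five concentrations were used to interpolate endpoints linearly. GI50 marks 50% less growth. TGI marks complete inhibition of growth.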 Where a SMILES comes first, the peptide text is derived from it.
# Assays:
# Assay in all cases: inhibition of tumour cell growth, NCI panel, 48 h
# OVCAR-3 ovarian = tested on: OVCAR-3 ovarian
# A549 NSCLC = tested on: A549 NSCLC
# PC-3 prostate = tested on: PC-3 prostate
# ACHN renal = tested on: ACHN renal
# SK-MEL-2 melanoma = tested on: SK-MEL-2 melanoma
# IGROV1 ovarian = tested on: IGROV1 ovarian
# HOP-92 NSCLC = tested on: HOP-92 NSCLC
# SK-MEL-28 melanoma = tested on: SK-MEL-28 melanoma
# EKVX NSCLC = tested on: EKVX NSCLC
# CCRF-CEM leukemia = tested on: CCRF-CEM leukemia
SMILES,TGI (OVCAR-3 ovarian) [µM],TGI (A549 NSCLC) [µM],TGI (PC-3 prostate) [µM],TGI (ACHN renal) [µM],TGI (SK-MEL-2 melanoma) [µM],TGI (IGROV1 ovarian) [µM],TGI (HOP-92 NSCLC) [µM],TGI (SK-MEL-28 melanoma) [µM],TGI (EKVX NSCLC) [µM],TGI (CCRF-CEM leukemia) [µM],GI50 (OVCAR-3 ovarian) [µM],GI50 (EKVX NSCLC) [µM]
CCCC(CC)c1cc(O)c(O)cc1C(CC)CCC (stereo unspecified),> 10,> 10,> 10,> 10,> 10,> 10,> 10,> 10,> 10,> 10,,
COC(=O)c1c(C)cccc1C1CN=NC12Cc1cccc(C)c1C2=O (stereo unspecified),,66.8,71.1,> 100,94.7,> 100,47.6,> 100,> 100,71.1,,
COc1cccc(OC/C(N=Cc2ccncc2)=N/NC(=O)c2ccncc2)c1,> 100,> 100,> 100,> 100,> 100,> 100,> 100,> 100,> 100,> 100,,
CCCCCCCCCCC[N+]1(Cc2ccccc2)CC2CCN(Cc3ccccc3)CC2C1 (stereo unspecified),1.28,2.43,1.18,2.43,0.724,1.78,1.62,1.95,1.37,1.14,,
CC(C)CCCC(C)[C@H]1CC[C@H]2NCCCC[C@]12C (stereo partly specified),31.7,31.7,10.4,4.78,7.82,19.8,15.5,5.57,5.23,4.16,,
COC(=O)NC(Nc1ccc(C)cc1)(C(F)(F)F)C(F)(F)F,> 100,> 100,> 100,> 100,> 100,> 100,> 100,> 100,> 100,> 100,,
O=C1/C(=C/c2cccs2)N=C(c2ccccc2)N1c1nc2ccccc2s1,> 100,> 100,> 100,> 100,> 100,> 100,> 100,> 100,> 100,0.976,,
S=c1oc(CCCCCCCCc2nn(CNc3ccc(Cl)cc3)c(=S)o2)nn1CNc1ccc(Cl)cc1,,> 100,> 100,> 100,> 100,> 100,> 100,> 100,> 100,,,
COC(C/C=C\C=C\CC/C=C/CC(C)/C=C/C(=C\C(=O)O)CC(=O)O)/C(C)=C\C=C(/C)C(=O)O (stereo unspecified),> 100,> 100,> 100,,> 100,> 100,> 100,> 100,> 100,> 100,,
c1cc2c3c(c1)[C@@H]1O[C@@H]1c1cccc(c1-3)[C@@H]1O[C@H]21,,> 100,51.9,43,42.5,,50.2,31.3,34.4,,,
C=C1CN=C(Nc2ccc(F)cc2F)S1,,> 100,> 100,> 100,> 100,> 100,> 100,> 100,> 100,66.1,,
C#Cc1cccc(Nc2ncnc3cc(OCCOC)c(OCCOC)cc23)c1,> 100,> 100,> 100,32.2,50.6,16.9,60.2,> 100,> 93.7,> 100,3.53,0.301
Clc1ccc(Cc2nc3ccccc3nc2-c2cccc(Cl)c2)cc1,17.4,32.8,8.18,3.45,8.11,3.66,5.14,,31.9,0.174,,
C=C1CC(Cn2cc(Br)c(=O)[nH]c2=O)(c2ccc(Br)cc2)OC1=O (stereo unspecified),> 35,29,12.8,9.4,3.74,4.06,2.96,16.7,39.7,5.26,,
CC(=O)Nc1nc(C)c(S(=O)(=O)NC(=O)N2c3ccccc3CCc3ccccc32)s1,> 100,> 100,> 100,> 100,> 100,> 100,> 100,> 100,> 100,> 100,,
CCC(C)C(NC(=O)C1CCCN1)C(=O)NC(C(=O)NCC(=O)NC(CC(N)=O)C(=O)NC(CC(C)C)C(=O)NC(CC(C)C)C(=O)NC(CCCCN)C(N)=O)C(C)C (stereo unspecified) (H-PIVGNLLK-NH2; configuration not given here),> 75,> 75,> 75,> 75,> 75,> 75,> 75,> 75,> 75,> 75,,
Cc1ccc(C(=O)NN=C(/N=N/c2cccc(C)c2)c2ccc(N(C)C)cc2)cc1,> 100,> 100,> 100,> 100,> 100,> 100,> 100,> 100,> 100,> 100,,
O=C1/C(=C/C=C/c2ccccc2)CCC1CNc1ccc(Br)cc1 (stereo unspecified),> 100,> 100,> 100,> 100,,> 100,> 100,> 100,> 100,> 100,,
Cc1cn(C2CC(SCCO)C(CO)O2)c(=O)[nH]c1=O (stereo unspecified),> 100,> 100,> 100,> 100,> 100,> 100,> 100,> 100,> 100,> 100,,
OCC1c2ccccc2-n2nc(-c3ccccc3)c(O)c21 (stereo unspecified),79.2,> 100,34.3,30.6,43.9,> 100,35,> 100,> 100,> 100,,
O=c1oc2ccccc2c(O)c1C(c1ccc(O)cc1)c1c(O)c2ccccc2oc1=O,> 100,,> 100,> 100,> 100,> 100,> 100,> 100,> 100,> 100,,
